Series [1] has as its target T1, interaction of PCSK9-LDLR (Homo sapiens, UniProt Q8NBP7).
T1 construct: purchased MBL Company, Beijing, China CY-8150
In words: PCSK9-LDLR in vitro binding assay (inhibitory rate). As to conditions: for inhibitory activity on the interaction between PCSK9 and LDLR (in words): in vitro. Here is the method: Polypeptide PCSK9_1-14 (SEQ ID NOs: 210-223) is dissolved in pure water or DMSO. 85 μL reaction buffer, 5 μL 1 mM polypeptide sample and 10 μL 750 ng/mL PCSK9 protein was pre-incubated at room temperature for 20 minutes before being added to a 96 well plate. The OD450/540 nm value was measured according to the instructions of the PCSK9-LDLR in Vitro Binding Assay Kit (CY-8150, MBL Company, Beijing, China). Solvent control: replace polypeptide with 5 μL solvent. In 100 μL reaction system, the final concentration of the polypeptide and PCSK9 is 50 μM and 75 ng/mL, respectively.
Inhibition rate of polypeptide (%)=(OD450/540 nm(solvent control)−OD450/540 nm (sample))/OD450/540 nm(solvent control)×100

For series [2], the system named is P407-induced hyperlipidemia mice. The series can be described thus: Subcutaneous injection of PCSK9 inhibitory peptide, serum total cholesterol in P407-induced hyperlipidemia mice. It counts as in vivo, mouse. The conditions noted are these: for TC 15 min: 15 min after administration; for TC 30 min: 30 min after administration; for TC 60 min: 60 min after administration; for TC 90 min: 90 min after administration; for serum total cholesterol (TC) level after subcutaneous injection (in words): 2 μmol/kg single s.c., P407-induced hyperlipidemia mice. The procedure:
The experimental peptide sample was prepared using PEG400 with a final concentration of […], and the final concentration of PEG400 is 20% (w/v). Normal ICR mice were fasted overnight with water ad libitum. The next day, all of the mice were randomly divided into model control group (Con) and polypeptide administration group (2 μmol/kg) according to body weight. Then, all of the mice were intraperitoneally injected with P407 (500 mg/kg) and fed with feed 2 hours later. Six mice were taken as a normal control group (Nor). After 24 hours, the mice in Con were subcutaneously injected with saline containing 20% PEG400, and the mice in the treatment group were given peptides. Then, the blood was taken at different time points after administration to determine the serum total cholesterol (TC) level. In consideration of the complexity of factors affecting serum LDL-C levels, especially the differences between single and long-term administration, the in vivo activity of PCSK9 inhibitory peptide is mainly observed for changes in serum TC levels.

The next series has as its target elastase (Sus scrofa, UniProt P00772). In words: Stability of hybrid peptides (GLP-1, PCSK9, calcitonin, 17A analogues) against elastase hydrolysis (RP-HPLC remaining peak area). As to conditions: 30.0 min; peptide 60 μM, elastase 10 ng/μL, 37° C. The procedure:
FIG. 19. […] At different time point, 25 μL aliquots was taken out, and 10% (v/v) TFA was added to terminate the reaction.
(§1) Mix by centrifugation at 8000 rpm for 30 seconds.
Arrange a certain volume of 0.5 μg/μL elastase solution in another sterile EP. Incubate the EP tubes containing peptides and enzymes at 37° C. for 5 min, and then add 4.5 μL of elastase solution to each EP tube containing peptides and mix well. Start timing and remove 25 μL of reaction solution at 1.5, 3.0, 4.5, 6.0, 9.0, 15.0, 30.0, and 60.0 min later, respectively. Add 3.75 μL of 10% TFA to terminate the reaction and mix well by centrifugation at 8000 rpm for 30 seconds.
Referring to the experimental method in Example 5, in vitro stability of salmon Calcitonin analogs with oral administration activity to the enzymatic hydrolysis by trypsin, chymotrypsin and elastase were performed.
Referring to the experimental method in Example 5, in vitro stability of IL-17A inhibitory peptides towards the enzymatic hydrolysis by trypsin, chymotrypsin and elastase were performed.

The target in a further series is chymotrypsin (Bos taurus, UniProt P00766). In words: Stability of hybrid peptides (GLP-1, PCSK9, calcitonin, 17A analogues) against chymotrypsin hydrolysis (RP-HPLC remaining peak area). In a few lines:
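RP-HPLC peak area tracked intact peptide after 37 °C digestion with chymotrypsin (0.05 μg/μL solution, 5 min preincubation). Samples were withdrawn at 1.5-60.0 min and stopped with 10% TFA.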

A further series concerns the target NEP24.11 (Homo sapiens, UniProt P08473). In words: Tolerance of GLP-1 and its analogues to NEP24.11 (RP-HPLC remaining peak area). It counts as in vitro ADME. As to conditions: after 8 hours. Here is the method: as §1
Arrange a certain volume of 0.04 μg/μL NEP24.11 enzyme solution in another sterile EP.

Where [3] appears, read: serum, subcutaneous 2 μmol/kg, mean ± sd.

Bridge positions count the residues as written; N and C are the ends. Ends that are not written are not given here.

Sequence of elastase (P00772 27-266): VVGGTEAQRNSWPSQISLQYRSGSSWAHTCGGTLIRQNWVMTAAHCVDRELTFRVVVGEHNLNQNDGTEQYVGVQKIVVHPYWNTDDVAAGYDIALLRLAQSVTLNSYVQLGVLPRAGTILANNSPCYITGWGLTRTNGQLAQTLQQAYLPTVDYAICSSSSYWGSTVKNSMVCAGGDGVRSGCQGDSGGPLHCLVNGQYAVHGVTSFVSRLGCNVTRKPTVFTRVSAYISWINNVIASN
Sequence of NEP24.11 (P08473 whole entry): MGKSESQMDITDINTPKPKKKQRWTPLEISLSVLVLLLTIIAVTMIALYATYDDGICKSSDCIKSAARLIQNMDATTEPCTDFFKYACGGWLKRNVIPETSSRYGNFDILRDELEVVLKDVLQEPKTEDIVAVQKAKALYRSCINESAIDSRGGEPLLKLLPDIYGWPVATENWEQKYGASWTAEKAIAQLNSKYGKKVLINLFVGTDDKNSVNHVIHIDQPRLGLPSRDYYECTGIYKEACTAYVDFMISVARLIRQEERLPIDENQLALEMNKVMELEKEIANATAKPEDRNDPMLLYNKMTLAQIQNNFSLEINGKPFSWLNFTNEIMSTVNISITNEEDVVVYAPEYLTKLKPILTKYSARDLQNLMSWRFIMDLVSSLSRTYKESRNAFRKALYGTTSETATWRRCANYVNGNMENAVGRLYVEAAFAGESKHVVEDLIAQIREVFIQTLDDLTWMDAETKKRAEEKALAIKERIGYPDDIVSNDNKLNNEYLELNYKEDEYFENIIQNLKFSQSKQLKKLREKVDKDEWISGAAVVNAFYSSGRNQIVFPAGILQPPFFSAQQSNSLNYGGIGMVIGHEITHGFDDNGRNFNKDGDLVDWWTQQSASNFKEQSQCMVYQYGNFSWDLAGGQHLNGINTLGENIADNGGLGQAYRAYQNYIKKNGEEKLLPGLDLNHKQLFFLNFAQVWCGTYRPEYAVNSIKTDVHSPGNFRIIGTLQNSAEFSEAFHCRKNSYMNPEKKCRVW

Take “Phe-Cys-Thr-Tyr-Ser-Ile-Pro-Pro-Gln-Cys-Tyr-Gly-Gly-Thr-Val-Phe-Thr-Ser-Trp-Glu-Glu-Ala-Leu-Asp-Trp-Val (FCTYSIPPQCYGGTVFTSWEEALDWV; disulfide 2-10 (inferred)) [PCSK9_3CH]”: the “inhibitory activity on the interaction between PCSK9 and LDLR (in words)” value (shortened to “inhibitory activity”) in series [1] is “good inhibitory activity on the interaction between PCSK9 and LDLR”. In series [1] (listed as SEQ ID NO: 226), the “inhibitory activity” value is “good inhibitory effects in vitro”. For the same compound, in series [2] (setting [3]), the “TC 15 min” value was 3509 ± 1031 µg/mL, the “TC 30 min” value is 3828 ± 774 µg/mL, the “TC 60 min” value stood at 3930 ± 1509 µg/mL and the “TC 90 min” value was determined as 3435 ± 838 µg/mL.

Take `CC[C@H](C)[C@H](NC(=O)[C@H](Cc1ccccc1)NC(=O)[C@H](CCC(=O)O)NC(=O)[C@H](CCCCN)NC(=O)[C@H](C)NC(=O)[C@H](C)NC(=O)[C@H](CCC(N)=O)NC(=O)CNC(=O)[C@H](CCC(=O)O)NC(=O)[C@H](CC(C)C)NC(=O)[C@H](Cc1ccc(O)cc1)NC(=O)[C@H](CO)NC(=O)[C@H](CO)NC(=O)[C@@H](NC(=O)[C@H](CC(=O)O)NC(=O)[C@H](CO)NC(=O)[C@@H](NC(=O)[C@H](Cc1ccccc1)NC(=O)[C@@H](NC(=O)CNC(=O)[C@H](CCC(=O)O)NC(=O)[C@H](C)NC(=O)[C@@H](N)Cc1c[nH]cn1)[C@@H](C)O)[C@@H](C)O)C(C)C)C(=O)N[C@@H](C)C(=O)N[C@@H](Cc1c[nH]c2ccccc12)C(=O)N[C@@H](CC(C)C)C(=O)N[C@H](C(=O)N[C@@H](CCCCN)C(=O)NCC(=O)N[C@@H](CCCN=C(N)N)C(=O)NCC(=O)O)C(C)C` [GLP-1 (7-37), reference compound]: the “Remaining peak area (%)/elastase” value on elastase was “no GLP-1 prototype molecule was detected”. The “stability towards chymotrypsin hydrolysis (in words)” value on chymotrypsin is “completely degraded”. Moreover, the “degradation by NEP24.11 (in words)” value at NEP24.11 is listed as “almost completely degraded”.

“Thr-Val-Phe-Thr-Ser-Trp-Glu-Glu-Ala-Leu-Asp-Trp-Val-Gly-Ile-Cys-Thr-Ala-Ser-Ile-Pro-Pro-Ile-Cys-Gln (TVFTSWEEALDWVGICTASIPPICQ-OH; disulfide 16-24 (inferred)) [PCSK9_2EC]”: the “inhibitory activity” value in series [1] was “good inhibitory activity on the interaction between PCSK9 and LDLR”. Besides, in series [1] (listed as SEQ ID NO: 225), the “inhibitory activity” value is listed as “good inhibitory effects in vitro”. In addition, in series [2] (setting [3]), the “TC 15 min” value came to 2954 ± 455 µg/mL, the “TC 30 min” value was found to be 2859 ± 535 µg/mL, the “TC 60 min” value is 2853 ± 487 µg/mL and the “TC 90 min” value is 2757 ± 475 µg/mL.

Turning to “Trp-Glu-Glu-Ala-Leu-Asp-Trp-Val-Gly-Ile-Cys-Thr-Ala-Ser-Ile-Pro-Pro-Ile-Cys-Gln-Gly-Thr-Val-Phe-Thr-Ser (WEEALDWVGICTASIPPICQGTVFTS; disulfide 11-19 (inferred)) [PCSK9_5EC]”, the “inhibitory activity” value in series [1] was “good inhibitory activity on the interaction between PCSK9 and LDLR”. Besides, the “inhibitory activity” value in series [1] (listed as SEQ ID NO: 229) is on record as “good inhibitory effects in vitro”. In addition, the “serum total cholesterol (TC) level after subcutaneous injection (in words)” value (“serum total cholesterol (TC) level” for short) in series [2] is “reduced serum TC level”. Besides, in series [2] (listed as SEQ ID NO: 229), the “serum total cholesterol (TC) level” value is given as “excellent lowering lipid (total cholesterol) activities in vivo”. In addition, in series [2] (setting [3]), the “TC 15 min” value is 2669 ± 520 µg/mL, the “TC 30 min” value amounted to 2231 ± 795 µg/mL, the “TC 60 min” value came to 2577 ± 466 µg/mL and the “TC 90 min” value was determined as 2532 ± 425 µg/mL.

With “Thr-Val-Phe-Thr-Ser-Gly-Phe-Cys-Thr-Tyr-Ser-Ile-Pro-Pro-Gln-Cys-Tyr-Gly-Trp-Glu-Glu-Tyr-Leu-Asp-Trp-Val (TVFTSGFCTYSIPPQCYGWEEYLDWV; disulfide 8-16 (inferred)) [PCSK9_9CH]”, the “inhibitory activity” value in series [1] was “good inhibitory activity on the interaction between PCSK9 and LDLR”. Besides, the “inhibitory activity” value in series [1] (listed as SEQ ID NO: 232) is reported as “good inhibitory effects in vitro”. Further, in series [2] (setting [3]), the “TC 15 min” value is 3727 ± 1154 µg/mL, the “TC 30 min” value turned out to be 4212 ± 753 µg/mL, the “TC 60 min” value amounted to 3658 ± 664 µg/mL and the “TC 90 min” value was found to be 2891 ± 710 µg/mL.

On to “Thr-Val-Phe-Thr-Ser-Gly-Arg-Cys-Thr-Lys-Ser-Ile-Pro-Pro-Ile-Cys-Phe-Trp-Glu-Glu-Tyr-Leu-Asp-Trp-Val (TVFTSGRCTKSIPPICFWEEYLDWV; disulfide 8-16 (inferred)) [PCSK9_9]”, for which the “inhibitory activity” value in series [1] is “good inhibitory activity on the interaction between PCSK9 and LDLR”. Also, in series [1] (listed as SEQ ID NO: 218), the “inhibitory activity” value is given as “good inhibitory effects in vitro”. The “serum total cholesterol (TC) level” value in series [2] was “reduced serum TC level”. Besides, in series [2] (listed as SEQ ID NO: 218), the “serum total cholesterol (TC) level” value was “excellent lowering lipid (total cholesterol) activities in vivo”. Besides, in series [2] (setting [3]), the “TC 30 min” value was 3143 ± 842 µg/mL, the “TC 60 min” value was determined as 3516 ± 914 µg/mL and the “TC 90 min” value came to 3409 ± 970 µg/mL. For the same compound, the “TC 120 min” value in series [2] (serum, subcutaneous 2 μmol/kg, 120 min after administration, mean ± sd) amounted to 327.4 ± 90.4 mg/dL.

Take “Trp-Glu-Glu-Ala-Leu-Asp-Trp-Val-Gly-Phe-Cys-Thr-Tyr-Ser-Ile-Pro-Pro-Gln-Cys-Tyr-Gly-Thr-Val-Phe-Thr-Ser (WEEALDWVGFCTYSIPPQCYGTVFTS; disulfide 11-19 (inferred)) [PCSK9_5CH]”: the “inhibitory activity” value in series [1] was “good inhibitory activity on the interaction between PCSK9 and LDLR”. Besides, the “inhibitory activity” value in series [1] (listed as SEQ ID NO: 228) is recorded as “good inhibitory effects in vitro”. In addition, in series [2] (setting [3]), the “TC 15 min” value was found to be 3002 ± 716 µg/mL, the “TC 30 min” value turned out to be 3067 ± 685 µg/mL, the “TC 60 min” value was determined as 3023 ± 1035 µg/mL and the “TC 90 min” value was 2705 ± 741 µg/mL.

“Trp-Glu-Glu-Ala-Leu-Asp-Trp-Val-Cys-Gly-Arg-Ala-Thr-Lys-Ser-Ile-Pro-Pro-Ile-Cys-Phe-Gly-Thr-Val-Phe-Thr-Ser (WEEALDWVCGRATKSIPPICFGTVFTS; disulfide 9-20 (inferred)) [PCSK9_5]”: the “inhibitory activity” value in series [1] is “good inhibitory activity on the interaction between PCSK9 and LDLR”. The “inhibitory activity” value in series [1] (listed as SEQ ID NO: 214) is “good inhibitory effects in vitro”. Moreover, the “serum total cholesterol (TC) level” value in series [2] is “reduced serum TC level”. Further, the “serum total cholesterol (TC) level” value in series [2] (listed as SEQ ID NO: 214) is recorded as “excellent lowering lipid (total cholesterol) activities in vivo”. For the same compound, in series [2] (setting [3]), the “TC 15 min” value is 3050 ± 524 µg/mL, the “TC 30 min” value is 3236 ± 542 µg/mL, the “TC 60 min” value was 3089 ± 523 µg/mL and the “TC 90 min” value was 2980 ± 591 µg/mL.

As for “PCSK9_13: Pep2-8 analogue of Table 23 (GTNEALDNNCGRATKSIPPICFTVFTS; disulfide 10-21 (inferred))”, the “Inhibitory rate on the interaction of PCSK9-LDLR” value in series [1] (sample 50 μM, PCSK9 75 ng/mL) is 15.8 ± 10.1%.

(Values after patent US20230416329A1, “A PEPTIDE WITH DISULFIDE BONDS AND INHIBITORY ACTIVITY AGAINST SERINE PROTEASES, DERIVED HYBRID PEPTIDES THEREOF, AND USES THEREOF” (INSTITUTE OF MATERIA MEDICA , CHINESE ACADEMY OF MEDICAL …, priority 2020, published 2023).)
